Laboratory results as given in patent US8569264B2, “Antibacterial 4,5-substituted aminoglycoside analogs having multiple substituents” (ISIS Pharmaceuticals, Inc., priority 2005, dated 2013).
Converted amounts (≈) assume the structure as drawn. Read-outs that look alike come from different tables or passages of the source.

Experiments:
[1] = target: 18S ribosomal subunit RNA target; test: Mass spectrometry based binding assay (FTICR), 18S
Procedure: (§1) In a typical experiment, 10 μL of an aqueous solution containing 100 mM ammonium acetate buffer, 2.5 or 5 μM of each RNA, and 33% isopropyl alcohol (to aid ion desolvation) was prepared with different concentrations of each ligand or ligand mixture Samples were introduced into the electrospray ionization source (negative ionization mode) at 1 μL/min and ions were stored for 1 sec in an RF-only hexapole following desolvation. The abundances were integrated from the respective ions for free RNA and the ligand-RNA complex. The primary (1:1 RNA:ligand) and secondary (1:2 complex, if observed). […] The peak ratios were measured at each concentration, then a plot of complex/free RNA versus concentration of ligand added was fitted to a second (or higher) order binding polynomial to determine the KD.

[2] = target: 16S ribosomal subunit RNA target; test: Mass spectrometry based binding assay (FTICR), 16S
Procedure: as §1, with “[…],” for “2.5 or 5 μM of each RNA,”

[3] = tested on: E. coli S30 bacterial extract (pBestLuc firefly luciferase reporter); test: Coupled bacterial transcription/translation assay; assay type: biochemical; details: read-out: Trans/Trans IC50
Procedure: The DNA template, pBestLuc™ (Promega), is a plasmid containing a reporter gene for firefly luciferase fused to a strong tac promoter and ribosome binding site. Messenger RNA from 1 μg pBestLuc is transcribed and translated in E. coli S30 bacterial extract in the presence or absence of test compound. Compounds are tested in a black 96 well microtiter plate with an assay volume of 35 μL. […] The transcription/translation reaction is incubated for 35 minutes at 37° C. followed by detection of functional luciferase with the addition of 30 μL LucLite™ (Packard). Light output is quantitated on a Packard TopCount.

E. Coli = test: MIC, E. Coli; assay type: cell-based
Procedure: (§2) The MIC assays are carried out in 150 μL volume in duplicate in 96-well clear flat-bottom plates. The bacterial suspension from an overnight culture growth in appropriate medium is added to a solution of test compound in 4% DMSO in water. Final bacterial inoculum is approximately 10^5-10^6 CFU/well. […] Both ampicillin and tetracycline are used as antibiotic-positive controls in each screening assay for S. pyogenes, E. coli imp-, E. coli, S. aureus, E. faecalis, K. pneumoniae and P. vulgaris. Ciprofloxacin is used as an antibiotic positive control in each screening assay for P. aeruginosa.

S. Aureus = test: MIC, S. Aureus; assay type: cell-based
Procedure: as §2

[4] = FTICR mass spectrometry, Example 105
[5] = FTICR mass spectrometry, run at 100 nM RNA, Example 105

SMILES | Kd [1, 4] [nM] | Kd [2, 5] [nM] | IC50 ([3]; Example 105) [nM] | MIC E. Coli. (E. Coli; Example 105) | MIC S. Aureus (S. Aureus; Example 105) | also measured
NCC1OC(OC2C(CO)OC(OC3C(O)C(N)CC(N)C3OC3OC(CO)C(O)C(O)C3N)C2OCCNCCc2ccc3ccccc3c2)C(N)C(O)C1O (stereo not drawn) [Compound 9ak] | 3500 | 700 | 300 | 10 to 20 µM | 1-3. uM | 
NCC1OC(OC2C(CO)OC(OC3C(O)C(N)CC(N)C3OC3OC(CO)C(O)C(O)C3N)C2OCCNCc2nc3ccccc3[nH]2)C(N)C(O)C1O (stereo not drawn) [Compound 9e] | 11000 | 3900 | 200 | >100 µM | >100 µM | 
NCC1OC(OC2C(CO)OC(OC3C(O)C(N)CC(N)C3OC3OC(CO)C(O)C(O)C3N)C2OCCNC2CCCNC2)C(N)C(O)C1O (stereo not drawn) [Compound 9j] | 5000 | 100 | 100 | 1.5-3^ uM | 3 to 6 µM | 
NCC1OC(OC2C(CO)OC(OC3C(O)C(N)CC(N)C3OC3OC(CO)C(O)C(O)C3N)C2OCCNCC2CCCNC2)C(N)C(O)C1O (stereo not drawn) [Compound 9k] | 2600 | 300 | 40 | 1.5-3^ uM | 3 to 6 µM | 
NCC1OC(OC2C(CO)OC(OC3C(O)C(N)CC(N)C3OC3OC(CO)C(O)C(O)C3N)C2OCCNc2cnc3ccccc3c2)C(N)C(O)C1O (stereo not drawn) [Compound 9m] | 900 | 100 | 100 | 12 to 25 µM | 1 to 2 µM | 
NCC1OC(OC2C(CO)OC(OC3C(O)C(N)CC(N)C3OC3OC(CO)C(O)C(O)C3N)C2OCCNC2CCCCC2)C(N)C(O)C1O (stereo not drawn) [Compound 9n] | 400 | 100 | 200 | 3 to 6 µM | 3 to 5 µM | 
NCC1OC(OC2C(CO)OC(OC3C(O)C(N)CC(N)C3OC3OC(CO)C(O)C(O)C3N)C2OCCNCCc2cccnc2)C(N)C(O)C1O (stereo not drawn) [Compound 9o] | 1000 | 200 | 200 | 6 to 12 µM | 0.6-1^ uM | 
NCC1OC(OC2C(CO)OC(OC3C(O)C(N)CC(N)C3OC3OC(CO)C(O)C(O)C3N)C2OCCNCc2ccccc2)C(N)C(O)C1O (stereo not drawn) [Compound 9q] | 300 | 100 | 800 | 3 to 6 µM | 3 to 5 µM | 
NCC1OC(OC2C(CO)OC(OC3C(O)C(N)CC(N)C3OC3OC(CO)C(O)C(O)C3N)C2OCCNCc2ccc(N)nc2)C(N)C(O)C1O (stereo not drawn) [Compound 9s] | 500 | 100 | 200 | 3 to 6 µM | 0.3 to 0.6 µM | 
NCC1OC(OC2C(CO)OC(OC3C(O)C(N)CC(N)C3OC3OC(CO)C(O)C(O)C3N)C2OCCNCc2ccnc(N)c2)C(N)C(O)C1O (stereo not drawn) [Compound 9t] | 300 | 20 | 700 | 6 to 12 µM | 0.6-1^ uM | 
NCC1OC(OC2C(CO)OC(OC3C(O)C(N)CC(N)C3OC3OC(CO)C(O)C(O)C3N)C2OCCNc2ccccn2)C(N)C(O)C1O (stereo not drawn) [Compound 9u] | 22000 | 5000 | 400 | 12 to 25 µM | 1 to 2 µM | 
NCC1OC(OC2C(CO)OC(OC3C(O)C(N)CC(N)C3OC3OC(CO)C(O)C(O)C3N)C2OCCNC23CC4CC(CC(O)(C4)C2)C3)C(N)C(O)C1O (stereo not drawn) [Compound 9w] |  |  |  |  |  | Kd ([1]; Example 106): 1700 nM; Kd ([2]; Example 106): 3200 nM; IC50 ([3]; Example 106): 400 nM; MIC E. Coli. (E. Coli; Example 106): 20 to 40 µM; MIC S. Aureus (S. Aureus; Example 106): 1 to 3 µM
NCC1OC(OC2C(CO)OC(OC3C(O)C(N)CC(N)C3OC3OC(CO)C(O)C(O)C3N)C2OCCNCCCc2ccccc2)C(N)C(O)C1O (stereo not drawn) [Compound 9x] | 6300 | 1000 | 100 | 3 to 5 µM | 0.6 to 1.2 µM | 
NCC1OC(OC2C(CO)OC(OC3C(O)C(N)CC(N)C3OC3OC(CO)C(O)C(O)C3N)C2OCCNCCCCc2ccccc2)C(N)C(O)C1O (stereo not drawn) [Compound 9z] | 6400 | 700 | 100 | 3 to 5 µM | 0.6 to 1.2 µM | 
NCC1OC(OC2C(CO)OC(OC3C(O)C(N)CC(N)C3OC3OC(CO)C(O)C(O)C3N)C2OCCN(CCc2ccccc2)C(=O)c2ccccc2)C(N)C(O)C1O (stereo not drawn) [Compound 10] |  |  |  |  |  | Kd ([1]; Example 106): 2500 nM; Kd ([2]; Example 106): 3900 nM; IC50 ([3]; Example 106): 400 nM; MIC E. Coli. (E. Coli; Example 106): 10 to 20 µM; MIC S. Aureus (S. Aureus; Example 106): 3 to 5 µM
CC(=O)N(CCOC1C(OC2C(O)C(N)CC(N)C2OC2OC(CO)C(O)C(O)C2N)OC(CO)C1OC1OC(CN)C(O)C(O)C1N)CCc1ccccc1 (stereo not drawn) [Compound 11] |  |  |  |  |  | Kd ([1]; Example 106): 6100 nM; Kd ([2]; Example 106): 1500 nM; IC50 ([3]; Example 106): 400 nM; MIC E. Coli. (E. Coli; Example 106): 10 to 20 µM; MIC S. Aureus (S. Aureus; Example 106): 1 to 3 µM
NC[C@@H]1O[C@H](O[C@H]2[C@@H](OCCO)[C@H](O[C@@H]3[C@@H](O)[C@H](N)C[C@H](N)[C@H]3O[C@H]3O[C@H](CO)[C@@H](O)[C@H](O)[C@H]3N)O[C@@H]2CO)[C@H](N)[C@@H](O)[C@@H]1O [Compound 12a] | 7300 | 900 | 100 | 12 to 25 µM | 6 to 12 µM | 
NC[C@@H]1O[C@H](O[C@H]2[C@@H](OCCCCCc3ccccc3)[C@H](O[C@@H]3[C@@H](O)[C@H](N)C[C@H](N)[C@H]3O[C@H]3O[C@H](CO)[C@@H](O)[C@H](O)[C@H]3N)O[C@@H]2CO)[C@H](N)[C@@H](O)[C@@H]1O [Compound 14c] | 59000 | 40000 | 200 |  |  | MIC (E. Coli; Escherichia coli, Example 105): 10 to 20 µM (≈ 7.62 to 15.2 µg/mL); MIC E. Coli. (E. Coli; Example 107): 10 to 20 µM; MIC S. Aureus (S. Aureus; Example 107): 3 to 5 µM; MIC (S. Aureus; Staphylococcus aureus, Example 105): 3 to 5 µM (≈ 2.29 to 3.81 µg/mL)
NCCCNCC1OC(OC2C(N)CC(N)C(O)C2OC2OC(CO)C(OC3OC(CN)C(O)C(O)C3N)C2O)C(N)C(O)C1O (stereo not drawn) [Compound 15b] |  |  |  |  |  | Kd ([1]; Example 108): 1400 nM; Kd ([2]; Example 108): 1600 nM; IC50 ([3]; Example 108): 200 nM; MIC E. Coli. (E. Coli; Example 108): 2.5-5^ uM; MIC S. Aureus (S. Aureus; Example 108): 1.3 to 2.5 µM
NCC1OC(OC2C(CO)OC(OC3C(O)C(N)CC(N)C3OC3OC(CN4CCOCC4)C(O)C(O)C3N)C2O)C(N)C(O)C1O (stereo not drawn) [Compound 15c] |  |  |  |  |  | Kd ([1]; Example 108): 3000 nM; Kd ([2]; Example 108): 3600 nM; IC50 ([3]; Example 108): 300 nM; MIC E. Coli. (E. Coli; Example 108): 20 to 40 µM; MIC S. Aureus (S. Aureus; Example 108): 10 to 20 µM
CC(C)(C)OC(=O)NNCC1OC(OC2C(N)CC(N)C(O)C2OC2OC(CO)C(OC3OC(CN)C(O)C(O)C3N)C2O)C(N)C(O)C1O (stereo not drawn) [Compound 15d] |  |  |  |  |  | Kd ([1]; Example 108): 1400 nM; Kd ([2]; Example 108): 10 nM; IC50 ([3]; Example 108): 300 nM; MIC E. Coli. (E. Coli; Example 108): 6 to 12 µM; MIC S. Aureus (S. Aureus; Example 108): 12 to 25 µM
CNCC1OC(OC2C(N)CC(N)C(O)C2OC2OC(CO)C(OC3OC(CN)C(O)C(O)C3N)C2O)C(N)C(O)C1O (stereo not drawn) [Compound 15e] |  |  |  |  |  | Kd ([1]; Example 108): 1200 nM; Kd ([2]; Example 108): 400 nM; IC50 ([3]; Example 108): 200 nM; MIC E. Coli. (E. Coli; Example 108): 2 to 3 µM; MIC S. Aureus (S. Aureus; Example 108): 2 to 3 µM
CC(C)NCC1OC(OC2C(N)CC(N)C(O)C2OC2OC(CO)C(OC3OC(CN)C(O)C(O)C3N)C2O)C(N)C(O)C1O (stereo not drawn) [Compound 15h] |  |  |  |  |  | Kd ([1]; Example 108): 1200 nM; Kd ([2]; Example 108): 1200 nM; IC50 ([3]; Example 108): 200 nM; MIC E. Coli. (E. Coli; Example 108): 2.5-5^ uM; MIC S. Aureus (S. Aureus; Example 108): 1.3 to 2.5 µM
NCC1OC(OC2C(CO)OC(OC3C(O)C(N)CC(N)C3OC3OC(CNN)C(O)C(O)C3N)C2O)C(N)C(O)C1O (stereo not drawn) [Compound 15i] |  |  |  |  |  | Kd ([1]; Example 108): 1700 nM; Kd ([2]; Example 108): 600 nM; IC50 ([3]; Example 108): 200 nM; MIC E. Coli. (E. Coli; Example 108): 12 to 25 µM; MIC S. Aureus (S. Aureus; Example 108): 3 to 6 µM
NCCOC1C(OC2C(O)C(N)CC(N)C2OC2OC(CO)C(O)C(O)C2N)OC(CO)C1O (stereo not drawn) [Compound 30a] | 58000 | 19000 | 200 | 6 to 12 µM | 12 to 25 µM | 
NCCCNCCOC1C(OC2C(O)C(N)CC(N)C2OC2OC(CO)C(O)C(O)C2N)OC(CO)C1O (stereo not drawn) [Compound 30b] | 18000 | 9200 | 100 | 6 to 12 µM | 6 to 12 µM | 
